Patent US10934283B2, “COMT inhibiting methods and compositions” (LIEBER INSTITUTE FOR BRAIN DEVELOPMENT, priority 2015, dated 2021)

Molecular target: T1, catechol-O-methyltransferase (COMT) (Homo sapiens, UniProt P21964)
T1 construct: M51A variant) was expressed in HEK 293F cells
T1 sequence (P21964 52-271 limits assumed): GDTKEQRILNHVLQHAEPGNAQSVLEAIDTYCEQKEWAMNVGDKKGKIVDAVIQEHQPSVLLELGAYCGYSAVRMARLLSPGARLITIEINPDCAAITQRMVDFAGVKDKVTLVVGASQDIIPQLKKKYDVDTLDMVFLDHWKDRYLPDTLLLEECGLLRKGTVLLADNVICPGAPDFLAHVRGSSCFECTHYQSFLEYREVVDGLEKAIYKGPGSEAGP
Experiment: COMT inhibition assay (HTRF, production of SAH from SAM)
Type: biochemical
Conditions: table does not say MB-COMT or S-COMT
How it was run: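 Membranes from HEK293F cells expressing MB-COMT (M51A variant) incubated with 20 μM SAM and 1.5 μM dopamine plus compound (10 concentrations) for 40 min at 37 °C; S-COMT (Val158) at 0.15 ng/well used 100 μM dopamine, 15 min. SAH measured by HTRF against a standard curve; pIC50 from 4-parameter logistic fit.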

Structure (SMILES)	Activity range (pIC50)
CC(=O)Nc1cccc(C(C)N2CCn3cc(O)c(=O)cc3C2)c1 (stereo not shown) [Example 96, N-{3-[1-(7-hydroxy-8-oxo-1,3,4,8-tetrahydro-2H-pyrido[1,2-a]pyrazin-2-yl)ethyl]phenyl}acetamide]	++ (two plus signs (++) is associated with a pIC50 of from about 6 to 7)
CC(c1cc(F)ccc1F)N1CCn2cc(O)c(=O)cc2C1 (stereo not shown) [Example 97, 2-[1-(2,5-difluorophenyl)ethyl]-7-hydroxy-1,2,3,4-tetrahydro-8H-pyrido[1,2-a]pyrazin-8-one]	+++ (three plus signs (+++) is associated with a pIC50 of above about 7)
CC(c1ccccc1F)N1CCn2cc(O)c(=O)cc2C1 (stereo not shown) [Example 98, 2-[1-(2-fluorophenyl)ethyl]-7-hydroxy-1,2,3,4-tetrahydro-8H-pyrido[1,2-a]pyrazin-8-one]	++ (two plus signs (++) is associated with a pIC50 of from about 6 to 7)
CC(c1ccc(F)cc1)N1CCn2cc(O)c(=O)cc2C1 (stereo not shown) [Example 99, 2-[1-(4-fluorophenyl)ethyl]-7-hydroxy-1,2,3,4-tetrahydro-8H-pyrido[1,2-a]pyrazin-8-one]	++ (two plus signs (++) is associated with a pIC50 of from about 6 to 7)
O=c1cc2n(cc1O)CCN(C(CO)c1ccccc1)C2 (stereo not shown) [Example 100, 7-hydroxy-2-(2-hydroxy-1-phenylethyl)-1,2,3,4-tetrahydro-8H-pyrido[1,2-a]pyrazin-8-one]	+ (a single plus (+) is associated with a pIC50 of from about 4.5 to 6)
O=c1cc2n(cc1O)CCN(C(c1ccccc1)C(F)(F)F)C2 (stereo not shown) [Example 101, 7-hydroxy-2-(2,2,2-trifluoro-1-phenylethyl)-1,2,3,4-tetrahydro-8H-pyrido[1,2-a]pyrazin-8-one]	+++ (three plus signs (+++) is associated with a pIC50 of above about 7)
O=c1cc2n(cc1O)CCN(Cc1csc(-c3ccccc3)n1)C2 [Example 102, 7-hydroxy-2-[(2-phenyl-1,3-thiazol-4-yl)methyl]-1,2,3,4-tetrahydro-8H-pyrido[1,2-a]pyrazin-8-one]	++ (two plus signs (++) is associated with a pIC50 of from about 6 to 7)
Cc1nn(-c2ccccc2)c(C)c1CN1CCn2cc(O)c(=O)cc2C1 [Example 103, 2-[(3,5-dimethyl-1-phenyl-1H-pyrazol-4-yl)methyl]-7-hydroxy-1,2,3,4-tetrahydro-8H-pyrido[1,2-a]pyrazin-8-one]	++ (two plus signs (++) is associated with a pIC50 of from about 6 to 7)
O=c1cc2n(cc1O)CCN(C1(c3ccccc3)CC1)C2 [Example 104, 7-hydroxy-2-(1-phenylcyclopropyl)-3,4-dihydro-1H-pyrido[1,2-a]pyrazin-8-one]	+++ (three plus signs (+++) is associated with a pIC50 of above about 7)
O=c1cc2n(cc1O)CCN(C(CF)c1ccccc1)C2 (stereo not shown) [Example 105, 2-(2-fluoro-1-phenyl-ethyl)-7-hydroxy-3,4-dihydro-1H-pyrido[1,2-a]pyrazin-8-one]	+++ (three plus signs (+++) is associated with a pIC50 of above about 7)
O=c1cc2n(cc1O)CCN(C1(c3ccccc3Cl)CC1)C2 [Example 106, 2-[1-(2-chlorophenyl)cyclopropyl]-7-hydroxy-3,4-dihydro-1H-pyrido[1,2-a]pyrazin-8-one]	+++ (three plus signs (+++) is associated with a pIC50 of above about 7)
O=c1cc2n(cc1O)CCN(C(c1ccccc1)C(F)F)C2 (stereo not shown) [Example 107, 2-(2,2-difluoro-1-phenyl-ethyl)-7-hydroxy-3,4-dihydro-1H-pyrido[1,2-a]pyrazin-8-one]	+++ (three plus signs (+++) is associated with a pIC50 of above about 7)
O=c1cc2n(cc1O)CCN(c1nc3ccccc3s1)C2 [Example 108, 2-(1,3-benzothiazol-2-yl)-7-hydroxy-3,4-dihydro-1H-pyrido[1,2-a]pyrazin-8-one]	++ (two plus signs (++) is associated with a pIC50 of from about 6 to 7)
O=c1cc2n(cc1O)CCN(C1CC1c1ccccc1)C2 (stereo not shown) [Example 109, 7-hydroxy-2-(2-phenylcyclopropyl)-3,4-dihydro-1H-pyrido[1,2-a]pyrazin-8-one]	++ (two plus signs (++) is associated with a pIC50 of from about 6 to 7)
O=c1cc2n(cc1O)CCN(c1cccc3ncccc13)C2 [Example 110, 7-hydroxy-2-(5-quinolyl)-3,4-dihydro-1H-pyrido[1,2-a]pyrazin-8-one]	+ (a single plus (+) is associated with a pIC50 of from about 4.5 to 6)
O=c1cc2n(cc1O)CCN(C1(c3ccccc3)COC1)C2 [Example 111, 7-hydroxy-2-(3-phenyloxetan-3-yl)-3,4-dihydro-1H-pyrido[1,2-a]pyrazin-8-one]	++ (two plus signs (++) is associated with a pIC50 of from about 6 to 7)

Structure (SMILES)	Activity range (pIC50)
O=c1cc2n(cc1O)CCN(c1ccccc1)C2 [Example 112, 7-hydroxy-2-phenyl-1,2,3,4-tetrahydro-8H-pyrido[1,2-a]pyrazin-8-one]	+++ (three plus signs (+++) is associated with a pIC50 of above about 7)
Cc1cccc(N2CCn3cc(O)c(=O)cc3C2)c1 [Example 113, 7-hydroxy-2-(3-methylphenyl)-1,2,3,4-tetrahydro-8H-pyrido[1,2-a]pyrazin-8-one]	++ (two plus signs (++) is associated with a pIC50 of from about 6 to 7)
O=c1cc2n(cc1O)CCN(c1ccccc1OC(F)(F)F)C2 [Example 114, 7-hydroxy-2-[2-(trifluoromethoxy)phenyl]-1,2,3,4-tetrahydro-8H-pyrido[1,2-a]pyrazin-8-one]	++ (two plus signs (++) is associated with a pIC50 of from about 6 to 7)
O=c1cc2n(cc1O)CCN(Cc1ccccc1)C2Cc1ccccc1 (stereo not shown) [Example 115, 1,2-dibenzyl-7-hydroxy-1,2,3,4-tetrahydro-8H-pyrido[1,2-a]pyrazin-8-one]	++ (two plus signs (++) is associated with a pIC50 of from about 6 to 7)
O=c1cc2n(cc1O)CCN(Cc1ccccc1)C2c1ccccc1 (stereo not shown) [Example 116, 2-benzyl-7-hydroxy-1-phenyl-1,2,3,4-tetrahydro-8H-pyrido[1,2-a]pyrazin-8-one]	+++ (three plus signs (+++) is associated with a pIC50 of above about 7)
O=c1cc2n(cc1O)CCN(Cc1c(Cl)cccc1Cl)C2c1ccccc1 (stereo not shown) [Example 117, 2-(2,6-dichlorobenzyl)-7-hydroxy-1-phenyl-1,2,3,4-tetrahydro-8H-pyrido[1,2-a]pyrazin-8-one]	+++ (three plus signs (+++) is associated with a pIC50 of above about 7)
CCc1ccc(CN2CCn3cc(O)c(=O)cc3C2C(C)C)cc1 (stereo not shown) [Example 120, 2-(4-ethylbenzyl)-7-hydroxy-1-(propan-2-yl)-1,2,3,4-tetrahydro-8H-pyrido[1,2-a]pyrazin-8-one]	+++ (three plus signs (+++) is associated with a pIC50 of above about 7)
Cc1cccc(C)c1CN1CCn2cc(O)c(=O)cc2C1C (stereo not shown) [Example 121, 2-(2,6-dimethylbenzyl)-7-hydroxy-1-methyl-1,2,3,4-tetrahydro-8H-pyrido[1,2-a]pyrazin-8-one]	+++ (three plus signs (+++) is associated with a pIC50 of above about 7)
CCc1ccc(CN2CCn3cc(O)c(=O)cc3C2C)cc1 (stereo not shown) [Example 122, 2-(4-ethylbenzyl)-7-hydroxy-1-methyl-1,2,3,4-tetrahydro-8H-pyrido[1,2-a]pyrazin-8-one]	+++ (three plus signs (+++) is associated with a pIC50 of above about 7)
O=c1cc2n(cc1O)CCN(Cc1cccc3cccnc13)C2c1ccc(F)cc1 (stereo not shown) [Example 123, 1-(4-fluorophenyl)-7-hydroxy-2-(quinolin-8-ylmethyl)-1,2,3,4-tetrahydro-8H-pyrido[1,2-a]pyrazin-8-one]	+++ (three plus signs (+++) is associated with a pIC50 of above about 7)
Cc1cccc(C)c1CN1CCn2cc(O)c(=O)cc2C1c1ccc(F)cc1 (stereo not shown) [Example 124, 2-(2,6-dimethylbenzyl)-1-(4-fluorophenyl)-7-hydroxy-1,2,3,4-tetrahydro-8H-pyrido[1,2-a]pyrazin-8-one]	+++ (three plus signs (+++) is associated with a pIC50 of above about 7)
CCc1ccc(CN2CCn3cc(O)c(=O)cc3C2C2CCOCC2)cc1 (stereo not shown) [Example 125, 2-(4-ethylbenzyl)-7-hydroxy-1-(tetrahydro-2H-pyran-4-yl)-1,2,3,4-tetrahydro-8H-pyrido[1,2-a]pyrazin-8-one]	+++ (three plus signs (+++) is associated with a pIC50 of above about 7)
CCc1ccc(CN2CCn3cc(O)c(=O)cc3C2c2cccc(-c3cccnc3)c2)cc1 (stereo not shown) [Example 126, 2-(4-ethylbenzyl)-7-hydroxy-1-[3-(pyridin-3-yl)phenyl]-1,2,3,4-tetrahydro-8H-pyrido[1,2-a]pyrazin-8-one]	+++ (three plus signs (+++) is associated with a pIC50 of above about 7)
O=c1cc2n(cc1O)CC(c1ccccc1)N(Cc1ccccc1)C2 (stereo not shown) [Example 127, 2-benzyl-7-hydroxy-3-phenyl-1,2,3,4-tetrahydro-8H-pyrido[1,2-a]pyrazin-8-one]	+++ (three plus signs (+++) is associated with a pIC50 of above about 7)
O=c1cc2n(cc1O)CC(Cc1ccccc1)N(Cc1ccccc1)C2 (stereo not shown) [Example 128, 2,3-dibenzyl-7-hydroxy-1,2,3,4-tetrahydro-8H-pyrido[1,2-a]pyrazin-8-one]	++ (two plus signs (++) is associated with a pIC50 of from about 6 to 7)
